Legend:
[1] = tested on: ENR+CD organoids (ISC to Paneth cell differentiation); assay: Primary screen: basal (non-stimulated) lysozyme secretion LYZ.NS, 2.5-D 384-well ENR+CD organoid differentiation; type: cell-based, mouse
From the text: (§1) High-throughput screening.

[2] = tested on: ENR+CD organoids (ISC to Paneth cell differentiation); assay: Primary screen: CCh-stimulated lysozyme secretion LYZ.S, 2.5-D 384-well ENR+CD organoid differentiation; type: cell-based, mouse; conditions: primary screen
From the text: as §1

ENR+CD organoids = assay: Primary screen: ATP (CellTiter-Glo 3D, CTG) cell number/viability, 2.5-D 384-well ENR+CD organoids;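 further: compounds given at plating and again on day 3 over a 6-day differentiation from ENR+CV stem-cell-enriched precursors, ATP measured on day 6, plate median as control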
[3] = primary screen, standard z score, dose 0.08 uM
[4] = primary screen, standard z score, dose 0.40 uM
[5] = primary screen, standard z score, dose 2.00 uM
[6] = primary screen, standard z score, dose 10.00 uM
[7] = primary screen, dose 0.08 uM, standard z score
[8] = primary screen, dose 0.40 uM, standard z score
[9] = primary screen, dose 2.00 uM, standard z score
[10] = primary screen, dose 10.00 uM, standard z score
[11] = primary screen; dose 0.08 uM; FC vs plate median
[12] = primary screen; dose 0.40 uM; FC vs plate median
[13] = primary screen; dose 2.00 uM; FC vs plate median
[14] = primary screen; dose 10.00 uM; FC vs plate median

With `CCC(=O)Nc1cccc(Oc2nc(Nc3ccc(N4CCN(C)CC4)cc3OC)ncc2Cl)c1` [WZ4003] the Dose.FC.LYZ.NS ([1]; primary screen, dose 0.08 uM) was 0.074 log2 fold change, the “Z.LYZ.NS (standard z score)” value ([1]; primary screen, dose 0.08 uM) was 0.644 and the Dose.FC.LYZ.NS ([1]; primary screen, dose 0.40 uM) was −0.041 log2 fold change. For the same molecule, the “Z.LYZ.NS (standard z score)” value ([1]; primary screen, dose 0.40 uM) was −0.359, the Dose.FC.LYZ.NS ([1]; primary screen, dose 2.00 uM) was −0.017 log2 fold change and the “Z.LYZ.NS (standard z score)” value ([1]; primary screen, dose 2.00 uM) was −0.151. For the same molecule, the Dose.FC.LYZ.NS ([1]; primary screen, dose 10.00 uM) was −0.098 log2 fold change, the “Z.LYZ.NS (standard z score)” value ([1]; primary screen, dose 10.00 uM) was −0.850 and the Dose.FC.LYZ.S ([2]; dose 0.08 uM) was 0.117 log2 fold change. For the same molecule, the Dose.FC.LYZ.S ([2]; dose 0.40 uM) was −0.034 log2 fold change, the Dose.FC.LYZ.S ([2]; dose 2.00 uM) was −0.035 log2 fold change and the Dose.FC.LYZ.S ([2]; dose 10.00 uM) was −0.142 log2 fold change. The Dose.FC.CTG (ENR+CD organoids; primary screen, dose 0.08 uM) was 0.375 log2 fold change, the “Z.CTG (standard z score)” value (ENR+CD organoids; primary screen, dose 0.08 uM) was 0.896 and the Dose.FC.CTG (ENR+CD organoids; primary screen, dose 0.40 uM) was 0.173 log2 fold change. The “Z.CTG (standard z score)” value (ENR+CD organoids; primary screen, dose 0.40 uM) was 0.413, the Dose.FC.CTG (ENR+CD organoids; primary screen, dose 2.00 uM) was 0.076 log2 fold change and the “Z.CTG (standard z score)” value (ENR+CD organoids; primary screen, dose 2.00 uM) was 0.180. The Dose.FC.CTG (ENR+CD organoids; primary screen, dose 10.00 uM) was −0.018 log2 fold change and the “Z.CTG (standard z score)” value (ENR+CD organoids; primary screen, dose 10.00 uM) was −0.043.
In the case of `CCC(CC)CC1(C(=O)Nc2ccccc2SC(=O)C(C)C)CCCCC1` [Dalcetrapib (JTT-705, RO4607381)], the Dose.FC.LYZ.NS ([1]; primary screen, dose 0.08 uM) is reported as 0.055 log2 fold change, the Dose.FC.LYZ.NS ([1]; primary screen, dose 0.40 uM) is reported as −0.037 log2 fold change and the Dose.FC.LYZ.NS ([1]; primary screen, dose 2.00 uM) is reported as −0.034 log2 fold change. The Dose.FC.LYZ.NS ([1]; primary screen, dose 10.00 uM) was −0.074 log2 fold change, the Z.LYZ.NS [1, 3] was 0.475 and the Z.LYZ.NS [1, 4] was −0.324. For the same molecule, the Z.LYZ.NS [1, 5] was −0.296, the Z.LYZ.NS [1, 6] was −0.643 and the Dose.FC.LYZ.S ([2]; dose 0.08 uM) was 0.049 log2 fold change. It also gave a Dose.FC.LYZ.S ([2]; dose 0.40 uM) of 0.104 log2 fold change, a Dose.FC.LYZ.S ([2]; dose 2.00 uM) of 0.098 log2 fold change and a Dose.FC.LYZ.S ([2]; dose 10.00 uM) of −0.113 log2 fold change. It also gave a Dose.FC.CTG (ENR+CD organoids; primary screen, dose 0.08 uM) of 0.112 log2 fold change, a Dose.FC.CTG (ENR+CD organoids; primary screen, dose 0.40 uM) of −0.006 log2 fold change and a Dose.FC.CTG (ENR+CD organoids; primary screen, dose 2.00 uM) of 0.079 log2 fold change. The Dose.FC.CTG (ENR+CD organoids; primary screen, dose 10.00 uM) was 0.136 log2 fold change, the Z.CTG (ENR+CD organoids; [3]) was 0.268 and the Z.CTG (ENR+CD organoids; [4]) was −0.014. For the same molecule, the Z.CTG (ENR+CD organoids; [5]) was 0.188 and the Z.CTG (ENR+CD organoids; [6]) was 0.324.
Molecule `C[C@]12C=CC(=O)N[C@@H]1CC[C@@H]1[C@@H]2CC[C@]2(C)[C@@H](C(=O)Nc3cc(C(F)(F)F)ccc3C(F)(F)F)CC[C@@H]12` [Dutasteride] has a Dose.FC.LYZ.NS ([1]; primary screen, dose 0.08 uM) of 0.065 log2 fold change, a Dose.FC.LYZ.NS ([1]; primary screen, dose 0.40 uM) of 0.006 log2 fold change and a Dose.FC.LYZ.NS ([1]; primary screen, dose 2.00 uM) of −0.105 log2 fold change. For the same molecule, the Dose.FC.LYZ.NS ([1]; primary screen, dose 10.00 uM) was −0.092 log2 fold change, the Z.LYZ.NS [1, 3] was 0.568 and the Z.LYZ.NS [1, 4] was 0.052. For the same molecule, the Z.LYZ.NS [1, 5] was −0.915, the Z.LYZ.NS [1, 6] was −0.799 and the Dose.FC.LYZ.S ([2]; dose 0.08 uM) was 0.001 log2 fold change. For the same molecule, the Dose.FC.LYZ.S ([2]; dose 0.40 uM) was −0.054 log2 fold change, the Dose.FC.LYZ.S ([2]; dose 2.00 uM) was −0.074 log2 fold change and the Dose.FC.LYZ.S ([2]; dose 10.00 uM) was −0.151 log2 fold change. It also gave a Dose.FC.CTG (ENR+CD organoids; primary screen, dose 0.08 uM) of 0.057 log2 fold change, a Dose.FC.CTG (ENR+CD organoids; primary screen, dose 0.40 uM) of −0.266 log2 fold change and a Dose.FC.CTG (ENR+CD organoids; primary screen, dose 2.00 uM) of −0.098 log2 fold change. For the same molecule, the Dose.FC.CTG (ENR+CD organoids; primary screen, dose 10.00 uM) was −0.057 log2 fold change.
`CN(c1ncccc1CNc1nc(Nc2ccc3c(c2)CC(=O)N3)ncc1C(F)(F)F)S(C)(=O)=O` [PF-562271] gave a Z.LYZ.NS [1, 7] of −0.589, a Z.LYZ.NS [1, 8] of −1.325 and a Z.LYZ.NS [1, 9] of −2.034. For the same molecule, the Z.LYZ.NS [1, 10] was −2.184, the Dose.FC.LYZ.NS [1, 11] was −0.068 log2 fold change and the Dose.FC.LYZ.NS [1, 12] was −0.152 log2 fold change. It also gave a Dose.FC.LYZ.NS [1, 13] of −0.234 log2 fold change, a Dose.FC.LYZ.NS [1, 14] of −0.251 log2 fold change and a Dose.FC.LYZ.S ([2]; dose 0.08 uM, FC vs plate median) of −0.088 log2 fold change. The Dose.FC.LYZ.S ([2]; dose 0.40 uM, FC vs plate median) was −0.214 log2 fold change, the Dose.FC.LYZ.S ([2]; dose 2.00 uM, FC vs plate median) was −0.332 log2 fold change and the Dose.FC.LYZ.S ([2]; dose 10.00 uM, FC vs plate median) was −0.414 log2 fold change. For the same molecule, the Z.CTG (ENR+CD organoids; [7]) was −0.273, the Z.CTG (ENR+CD organoids; [8]) was −0.518 and the Z.CTG (ENR+CD organoids; [9]) was −1.311. For the same molecule, the Z.CTG (ENR+CD organoids; [10]) was −2.266, the Dose.FC.CTG (ENR+CD organoids; [11]) was −0.114 log2 fold change and the Dose.FC.CTG (ENR+CD organoids; [12]) was −0.217 log2 fold change. The Dose.FC.CTG (ENR+CD organoids; [13]) was −0.549 log2 fold change and the Dose.FC.CTG (ENR+CD organoids; [14]) was −0.949 log2 fold change.

— patent publication US20220323406A1, “METHODS AND COMPOSITIONS FOR DIFFERENTIATING STEM CELLS” (Massachusetts Institute of Technology, priority 2019, published 2022)
